Measured values: patent US6875781B2, “Pyridines and uses thereof” (Cell Therapeutics, Inc., priority 2003, dated 2005)

These compounds were tested against T1, LPAAT-β (Homo sapiens, UniProt O15120) (assay: LPAAT-β cell-free assay). Conditions: Sf9 cell membrane overexpressing recombinant LPAAT-β.
T1 construct: the full-length human LPAAT-β cDNA was amplified by PCR from the DNA template pCE9.LPAAT-β; poly-histidine tag (N); made in house; host or cells: Sf9 insect cells (baculovirus, pFastBac HTc); membrane fraction used
T1 sequence (O15120 24-278): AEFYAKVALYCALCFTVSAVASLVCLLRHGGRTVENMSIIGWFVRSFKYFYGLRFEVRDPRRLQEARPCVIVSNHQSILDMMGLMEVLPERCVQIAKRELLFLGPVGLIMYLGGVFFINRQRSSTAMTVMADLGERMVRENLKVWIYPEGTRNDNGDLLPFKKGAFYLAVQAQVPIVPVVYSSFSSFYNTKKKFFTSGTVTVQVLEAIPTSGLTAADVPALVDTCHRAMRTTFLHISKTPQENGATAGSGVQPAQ
Type: biochemical
Source text: For the construction of Baculovirus expression vectors, the full-length human LPAAT-β cDNA was amplified by PCR from the DNA template pCE9.LPAAT-β (West et at., DNA Cell Biol. 16:691-701 (1997)) using the primers 5′-[…] ATGGAGCTGTGGCCGTCTC-3′ (olpb1F; SEQ ID NO:1) and 5′-CAGGCTCTAG ACTACTGGGCCGGCTGCAC-3′ (olpb1R; SEQ ID NO:2). The ˜870 bp fragment generated was reamplified by PCR using the primers 5′[…] TCCGAAGAAGATC-3′ (olpb2F; SEQ ID NO:3) and 5′-CAGGCTCTAGCTACTGGGC CGGCTGCAC-3′ (olpb1R; SEQ ID NO:2). The ˜890 bp fragment generated as then cleaved with Sal I and Xba I for insertion into pFastBac™ HTc vector (Life Technologies, Gaithersberg, Md.) between the Sal I and Xba I sites for the generation of the plasmid pFB.LPAAT-β. This plasmid was then transformed into E. coli DH10Bac™ (Life Technologies, Gaithersberg, Md.) for the generation of recombinant Bacmid DNA for transfection in HighFive (Invitrogen, San Diego, Calif.) or SF9 insect cells for the production of recombinant Baculovirus stocks using the protocol described in the Bac-to-Bac® Baculovirus Expression System (Life Technologies, Gaithersberg, Md.), a eukaryotic expression system for generating recombinant baculovirus through site-specific transposition in E. coli. Viral stocks harvested from the transfected cells can then be used to infect fresh insect cells for the subsequence expression of LPAAT-β fusion protein with a poly-histidine tag and a myc-epitope near its N-terminus. The membrane fraction from these Sf9 cells would be the source of LPAAT enzyme.
For the preparation of membranes from Sf9 Cells, all steps are performed on ice or at 4° C. Sf9 cell pellets (˜10^8 cells) were thawed and resuspended in 1-2 ml of buffer A (20 mM Hepes, pH 7.5, 1 mM DTT, 1 mM EDTA, 20% w/v glycerol, 1 mM Benzamidine, 1 μg/ml soybean trypsin inhibitor (SBTI), 1 μg/ml pepstatin A) w/o DTT but with 1 mM Pefabloc. The cells were lysed by sonication using a Branson Sonifier at output=2, duty cycle=2, 10 pulses each at 10 s. with the tip of small sonicator probe submerged but not touching the walls. DTT was then added to 1 mM from a 1 M stock. The samples were centrifuged at 1500 rpm for 5 min. The low speed supernatant was saved and centrifuged (TLA 100.3 rotor, polycarbonate tubes, 2 ml/tube or 1.5 ml/tube minimum) at 100000×g for 1 hr. The high speed pellet was resuspend in Buffer A with a probe sonicator (10 pulses @ output #2 and duty cycle 20%) as a source of LPAAT enzyme.
LPAAT-β catalyzes the transfer of an acyl group from a donor such as acyl-CoA to LPA. The transfer of the acyl group from acyl-CoA to LPA leads to the release of free CoA, which can be reacted with the thiol reagent, 5,5′-dithiobis(2-nitrobenzoic acid) (DTNB). The reaction between DTNB and the free sulfhydryl group from CoA generates a yellow-colored product, 3-carboxylato-4-nitrothiophenolate (CNP), that absorbs at 413 nm. LPAAT-β derived from Sf9 cell membrane overexpressing LPAAT-β were resuspended in HEPES saline buffer (20 mM HEPES pH 7.5, 150 mM NaCl), 1 mg/ml BSA and 72 μl aliquots were distributed into 96-well microtiter plates. 8 μl of compound of interest at 200 μM dissolved in 100% DMSO was added into each well. 20 μl of 1 mM 18:1-CoA and 1 mM sn-1-18:1 lysoPA was then added to each well to initiate the reaction and allowed to run at room temperature for 25 min. 100 μl of 1 mM DTNB in 100% ethanol was then added to each well to quench the reaction and for color development. The absorbance at 405 nm, measured using a spectrophotometer plate reader, is proportional to the activity of LPAAT-β in the sample. This colorimetric assay was used for the high throughput screening of LPAAT inhibitors.
The radiometric assay was carried out in Sf9 cell membrane overexpressing LPAAT-β resuspended in HEPES-saline buffer, pH 7.5, 1 mg/ml BSA, 1 mM EDTA and 200 μM [^14C]18:1-CoA and 200 μM sn-1-18:1 lysoPA. […]

| SMILES | IC50 [nM] |
| --- | --- |
| COc1ccc(Cl)cc1-c1cc(Nc2ccc(C)cc2)cc(N)n1 [Example 6, 6-(5-Chloro-2-methoxy-phenyl)-N*4*-p-tolyl-pyridine-2,4-diamine] | 35000 |
| COc1ccc(Cl)cc1-c1cc(N)cc(Nc2ccc(C)cc2)n1 [Example 3, 6-(5-Chloro-2-methoxy-phenyl)-N*2*-p-tolyl-pyridine-2,4-diamine] | 29000 |
| COc1ccc(Cl)cc1-c1cc(N)cc(Nc2ccc(Cl)cc2)n1 [Example 4, 6-(5-Chloro-2-methoxy-phenyl)-N*2*-(4-chloro-phenyl)-pyridine-2,4-diamine] | 6500 |
| COc1ccc(Cl)cc1-c1cc(Nc2ccc(C)cc2)cc(NC(C)=O)n1 [Example 5, N-[6-(5-chloro-2-methoxy-phenyl)-4-p-tolylamino-pyridin-2-yl]-acetamide] | 34000 |
| COc1ccc(Cl)cc1-c1cc(Cl)cc(Nc2ccc(C)cc2)n1 [Example 2, [4-Cloro-6-(5-chloro-2-methoxy-phenyl)-pyridin-2-yl]-p-tolyl-amine] | > 40000 |
| CCOc1ccc(Cl)cc1-c1cc(N)nc(Nc2ccc(C)cc2)c1 [Example 10] | 490 |
| COc1ccc(Cl)cc1-c1cc(N)nc(Nc2ccc(C=O)cc2)c1 [Example 14, 4-[6-Amino-4-(5-chloro-2-methoxy-phenyl)-pyridin-2-ylamino]-benzaldehyde] | 260 |
| COc1ccc(Cl)cc1-c1cc(Nc2ccc(Cl)cc2)cc(N)n1 [Example 7, 6-(5-Chloro-2-methoxy-phenyl)-N*4*-(4-chloro-phenyl)-pyridine-2,4-diamine] | 18000 |

The next compounds have a lower IC50 than those just listed; values first:

| IC50 [nM] | SMILES |
| --- | --- |
| 100 | CCOc1ccc(Cl)cc1-c1cc(N)nc(Nc2ccc(CO)cc2)c1 [Example 13, {4-[6-Amino-4-(5-chloro-2-ethoxy-phenyl)-pyridin-2-ylamino]-phenyl}-methanol] |
| 240 | COc1ccc(Cl)cc1-c1cc(N)nc(Nc2ccc(C)cc2)c1 [Example 9] |
| 40 | COc1ccc(Cl)cc1-c1cc(N)nc(Nc2ccc(Cl)cc2)c1 [Example 8, 4-(5-Chloro-2-methoxy-phenyl)-N-(4-chloro-phenyl)-pyridine-2,6-diamine] |
| 200 | COc1ccc(Cl)cc1-c1cc(Nc2ccc(C)cc2)cc(Cl)n1 [Example 1, [2-Chloro-6-(5-chloro-2-methoxy-phenyl)-pyridin-4-yl]-p-tolyl-amine] |
| 50 | CCOc1ccc(Cl)cc1-c1cc(N)nc(Nc2ccc(C=O)cc2)c1 [Example 12, 4-[6-Amino-4-(5-chloro-2-ethoxy-phenyl)-pyridin-2-ylamino]-benzaldehyde] |
| 50 | CCOc1ccc(Cl)cc1-c1cc(N)nc(Nc2ccc(Cl)cc2)c1 [Example 11, 4-(5-Chloro-2-ethoxy-phenyl)-N-(4-chloro-phenyl)-pyridine-2,6-diamine] |
